Entries after “also recorded” stand apart in the source; their conditions may differ. Read-outs that look alike come from different tables or passages of the source. Ends that are not written are not given here.
Tests used:
[1] = SDS-PAGE and fluorography of blood after i.v. or p.o. administration; conditions: mice, data not shown
[2] = Biodistribution of 3H label after oral administration (scintillation counting, tissue/blood ratio); conditions: NOD mice, shortly after administration (Figure 1(a)), 0.01 < p < 0.05, N = 2–4 mice
Protocol: (§2) For initial evaluation of accumulation and elimination in blood, NOD mice (6–8 weeks) received 230–900 μCi ^3H-33-mer or ^3H-19-mer. […] Organs were incubated with SOLVABLE (Perkin-Elmer) at 55°C until dissolved and then with 30% hydrogen peroxide to decolorize the solution. Ultima Gold (Perkin Elmer) was added, and samples were counted 1 h later in a Packard 1600TR scintillation counter.
(§3) Specific activities (dpm/mg tissue) were calculated by dividing the counts by the respective weight of the sample that was measured. The tissue distribution was examined using the tissue/blood ratios. To compare responses in blood across different doses (230–900 μCi), data were normalized to a dosage of 100 μCi.
(§4) Before oral gavage, mice were starved for 4 h and were not fed until 20 min after.
(§5) One-way ANOVA with Tukey posttest was carried out using GraphPad Prism version 5.00 for Windows (GraphPad Software, San Diego, California, USA) to analyze the distribution of the label at each time point. The stomach and intestine were excluded from the analysis due to their large variation.

[3] = MALDI-TOF MS of fragments formed in vitro during incubation of 33-mer in mouse plasma; format: in vitro ADME; conditions: 33-mer in mouse plasma at 37°C, 5 kDa MWCO filtrate or SDS-PAGE gel slice, sequence assigned by mass match
Text: The extracts were combined.

[4] = MALDI-TOF MS of 33-mer fragments in plasma and pancreas after oral administration; conditions: for Sample in which the 33-mer fragment was found: mice 6–20 weeks, 500–900 μg 33-mer p.o., plasma and pancreas 45–60 min after administration, sequence assigned by mass match
Protocol: Plasma was fractionated in Amicon Ultra 10 kDa centrifugal filter units (Merck Millipore), Vivaspin 500, 5 kDa filter units (Sartorius), PD10 columns, Amicon Ultra 0.5 mL 10 kDa centrifugal filters, or SEP-PAK C18 Plus short cartridges (Waters), or they were ethanol-precipitated or acid-ethanol extracted. Slices from nonfixed gels were extracted overnight at 37°C in 100 μL of 50 mM NH4CO3 with or without 12.5 ng/μL Endoproteinase Glu-C Sequencing Grade (Roche Diagnostics). The gel slices were further extracted on a shaker for 15 min in 20 μL extraction buffer (1 : 2 (vol/vol) 50 mM NH4HCO3/acetonitrile). The extracts were combined.
Samples were dried in a vacuum concentrator (Eppendorf 5301) and reconstituted in 20 μL 5% acetic acid before desalting using POROS C18 matrix and elution onto a stainless steel 96-well MALDI target plate with 1 μL α-cyano-4-hydroxycinnamic acid (HCCA matrix) ready-made from Agilent (6 mg/mL in 30% acetonitrile, 30% methanol, and 0.1% TFA) for dried droplet crystallization. Analysis was done on Bruker Ultraflex with Daltonics flexAnalysis software, externally calibrated using a standard peptide mixture (Bruker, range: 1,000–3,200 Da). Spectra were recorded in positive linear mode and summed from 100 laser shots.
The MS mass of 84 fragments >800 Da was calculated. They were randomly generated from the 33-mer sequence, allowing for deamidation of up to two glutamine residues (only one deamidation for Mr <1500 Da) and for sodium and potassium ion adduct formation. Measured masses were matched to the predicted masses, using a difference of <0.5 Da as threshold. Masses from negative control samples were matched using a threshold of 1.0 and removed.

[5] = mouse, in vivo, po
Protocol: as §2, §3, §4, §5

digestive proteases = conditions: cited from earlier work
[6] = In vitro incubation of 33-mer in blood plasma, SDS-PAGE and fluorography; format: in vitro ADME, C57BL/6 mouse; conditions: C57BL/6 plasma with 33-mer 28.6 ng/µl, 0-4 h
Text: (§1) Supplementary file 2424306.f1.docx: Fig Supp 1. […] Abbreviations are as in Fig 1.Fig Supp 2. […] CT: control 33-mer/19-mer. […] CT is control 33-mer. […] CT is control 33-mer.

albumin and IgG = test: Depletion of albumin and IgG from plasma, radioactivity in gel slices; format: in vivo, mouse
Text: as §1

trypsin = test: Trypsin digestion of plasma/serum followed by SDS-PAGE and fluorography; format: in vitro ADME; conditions: serum; dithiothreitol/SDS at 53°C pH 7.5 45 min, then trypsin at 37°C
Text: as §1

[7] = LC-MS detection of 33-mer in plasma; format: in vivo, BALB/c mice; conditions: BALB/c, methanol-TFA precipitation
Protocol: BALB/c mice, 4–16 weeks of age, were given 650–900 μg of 33-mer, either i.v. or p.o., and heparin-plasma was prepared 15–60 min later at 0°C. Protein inhibitors were added to the tissues that were homogenized, mixed with internal standard (GENESEQP:AZF58701), and precipitated with 50% methanol, 1% TFA, and centrifugation. The samples were analyzed using an Orbitrap XL (Thermo Scientific) equipped with a Nano LC (Easy nLC II, Thermo Scientific). The chromatographic system was a 10 cm, ID 75 μm, 3 μm C18-A2 column (Thermo Scientific) with a flow of 300 nL/min with 0.1% formic acid as mobile phase A and 0.1% formic acid in acetonitrile as B. The MS scan was performed using a resolution of 30000 and a scan range of 300–2000 m/z.

[8] = mouse, in vivo
Protocol: (§6) Standard tissue sections were dipped in a 1 : 1 dilution in water of melted Kodak NTB Emulsion with 10% Amplify Fluorographic Reagent (GE Healthcare), air-dried, stored in the dark at 4°C with desiccant for 1–3 weeks, developed in Kodak D19 developer, fixed in Ilford Rapid Fixer, HE stained, and examined in an Olympus Bx51 microscope (UPlanSApo 20x, 0.40) equipped with a Colorview 1 camera and Analysis getIT software (Olympus).

[9] = mouse, in vivo; remark: listed apart in the source
Protocol: Heparin-plasma was prepared from tail blood at 0°C and analysed by SDS-PAGE without further processing, after depletion of albumin and IgG using a commercial kit (Protea Biosciences) or after digestion with trypsin (incubation with 125 mM dithiothreitol, 0.05% SDS at 53°C, pH 7.5 for 45 min, followed by digestion with trypsin (Fluka) at 37°C). The gel was fixed in 15% formalin/25% ethanol and Coomassie-stained. For fluorography, the fixed gels were soaked in 7% glycerol and Amplify Fluorographic Reagent (GE Healthcare), each for 30 min, dried, and exposed on Amersham Hyperfilm MP at −80°C. Subsequently, the dried gels were rehydrated in 7% acetic acid for 2–4 h and Coomassie-stained.
For scintillation counting, gel slices were excised from the nonfixed gel, covered with 600 μL of 30% hydrogen peroxide, and heated at 50°C overnight before measurement.
For kinetics studies, using SDS-PAGE and fluorography, 230 μCi ^3H-33-mer or 770 μCi of ^3H-19-mer was used for i.v. administration and 620–1200 μCi ^3H-33-mer was used for oral administration to NOD mice aged 6–8 weeks.
Blood and organs were sampled after 1, 24 and 72 h. […] Kinetics of 3H-33-mer and 3H-19-mer in mouse blood following i.v. and p.o. administration. 3H-33-mer (A) or 3H-19-mer (B) was given i.v. to NOD mice (6-8 weeks). Tail blood was analyzed by SDS-PAGE and fluorography at the indicated time points (min). CT: control 33-mer/19-mer. In (A, right), 660 µg of unlabeled 33-mer was injected prior to the labeled peptide. (C) 3H-33-mer was administered p.o. to NOD mice (6-8 weeks). Blood was analyzed after 0.5, 1 and 20 h. All lanes were loaded with the same amount of radioactivity. CT is control 33-mer. (D) Fluorogram of in vitro incubation of blood plasma from a C57BL/6 mouse with 33-mer (28.6 ng/µl or 222.000 dpm/µl) for 0-4 h. CT is control 33-mer. (E) Plasma from mice, that had received 3H-labelled 33-mer one hour earlier by i.v. or p.o. administration, was depleted of albumin and IgG. […] Data were normalized between lanes to contain identical amounts of radioactivity outside the albumin/IgG region. […]

[10] = Autoradiography of mouse tissues; conditions: 1 h after oral administration
Protocol: as §6

Compound	Sample in which the 33-mer fragment was found [4]	Sample (filtrate or gel slice range) in which the fragment was found [3]	also measured
N[C@@H](Cc1ccc(O)cc1)C(=O)O [3H-tyrosine, tyrosine]			HMW band after injection [1]: appearance of the HMW band; Level of label in the pancreas relative to blood [2]: accumulated similarly to the 33- and 19-mer
ELPYPQPEL [33-mer fragment formed in mouse plasma in vitro, MALDI-TOF MS mass match]		Filtrate	
ELPYPQPELPYPQPEL [33-mer fragment formed in mouse plasma in vitro, MALDI-TOF MS mass match]		Filtrate	
ELPYPQPELPYPQPELPY [33-mer fragment formed in mouse plasma in vitro, MALDI-TOF MS mass match]		Filtrate	
ELPYPQPELPYPQPELPYPQPQPF [33-mer fragment formed in mouse plasma in vitro, MALDI-TOF MS mass match]		14–18 kDa	
FPQPELPYPQPELPYPQPELPYPQPQPF [33-mer fragment formed in mouse plasma in vitro, MALDI-TOF MS mass match]		10–12 kDa	
H-LGQQQPFPPQQPYPQPQPF-OHY [19-mer]			Absorption from the intestine [5]: readily absorbed from the intestine; Level of label in the pancreas relative to blood [5]: high level of label; Presence of label at early time points [5]: present 1/2 h after administration and still remained 3 hours after oral administration; Resistance to digestive proteases (digestive proteases): resistant to digestive proteases
H-LQLQPFPQPELPYPQPELPYPQPELPYPQPQPF-OHY [33-mer]		4–6 kDa, 6–9 kDa, 14–17 kDa	Formation of 12 kDa and HMW signals in vitro [6]: the 12 kDa signal, but not the HMW signal, also formed in vitro; Label removed by depletion of albumin and IgG (albumin and IgG; 3H-33-mer added to blood in vitro, or cold peptide injected prior to labeled peptide): 14-15%; Label removed by depletion of albumin and IgG (albumin and IgG; blood of mice that had received 33-mer, regardless of route, plasma 1 h after administration): 35%; Degradation by trypsin (trypsin): degrades albumin, but not 33-mer; Intact peptide in plasma after oral administration ([7]; 650 µg p.o., 60 min): detected intact peptide; also recorded: close to the detection limit, and the peptide was not detected in all mice; Intact peptide in plasma after intravenous administration ([7]; 850 µg i.v., 15, 30 and 60 min): detected intact peptide; Absorption from the intestine [5]: readily absorbed from the intestine; Level of label in the pancreas relative to blood [5]: high level of label; Presence of label at early time points [5]: present 1/2 h after administration and still remained 3 hours after oral administration; Difference between i.v. and p.o. administration in autoradiography [8]: No difference was seen; Emergence of higher molecular weight species (HMW) in blood after injection ([9]; iv): After 1 h, higher molecular weight species (HMW) emerged; 33-mer signal in blood after oral administration ([9]; po): still present in the blood, although in low amounts; Resistance to digestive proteases (digestive proteases): resistant to digestive proteases; Label in zymogen granules of the pancreas [10]: high accumulation of label; Label in all other tissues examined ([10]; lung, kidney, ileum): homogenous labeling was observed; Longest peptide detected in blood ([4]; after oral 33-mer): 32-mer
LPYPQPELPYPQPQPF	Pancreas, NOD, C57BL/6		
LQLQPFPQPELPYPQPE	Plasma, NOD	4–6 kDa	
LQLQPFPQPELPYPQPELPYPQPELPYP	Plasma, NOD, C57BL/6		
LQLQPFPQPELPYPQPELPYPQPELPYPQP [33-mer fragment formed in mouse plasma in vitro, MALDI-TOF MS mass match]		14–18 kDa	
LQLQPFPQPELPYPQPELPYPQPELPYPQPQ [33-mer fragment formed in mouse plasma in vitro, MALDI-TOF MS mass match]		14–17 kDa	
LQPFPQPELPYPQPELPYPQPELPYPQPQ	Plasma, NOD, C57BL/6		
PFPQPELPYPQPELPYPQPELPYPQPQPF [33-mer fragment formed in mouse plasma in vitro, MALDI-TOF MS mass match]		10–12 kDa	
QLQPFPQPELPYPQPELPYPQPELPYPQPQP [33-mer fragment formed in mouse plasma in vitro, MALDI-TOF MS mass match]		14–17 kDa	
QPFPQPELPYPQPELPYPQPELPYPQPQ	Plasma, NOD, C57BL/6		
QPFPQPELPYPQPELPYPQPELPYPQPQP	Plasma, NOD, C57BL/6		
QPFPQPELPYPQPELPYPQPELPYPQPQPF [33-mer fragment formed in mouse plasma in vitro, MALDI-TOF MS mass match]		14–18 kDa	
YPQPELPYPQPQPF	Plasma, NOD, C57BL/6	Filtrate	

Continued, in another order:

Sample in which the 33-mer fragment was found [4]	Compound	Sample (filtrate or gel slice range) in which the fragment was found [3]	also measured
Plasma, NOD pancreas, C57BL/6	ELPYPQPELP		
Plasma, NOD pancreas, NOD	ELPYPQPELPYP		
Plasma, NOD	ELPYPQPELPYPQ		
Plasma, NOD	ELPYPQPQPF		
Plasma, C57BL/6	FPQPELPY		
Pancreas, C57BL/6	LQLQPFPQPE		
Plasma, C57BL/6	LQLQPFPQPELPYPQPELPYPQPELPYPQPQP	4–6 kDa	Stability as originally described (digestive proteases): stable
Pancreas, C57BL/6	QLQPFPQPEL		
Plasma, NOD	QLQPFPQPELP		
Plasma, NOD	QPFPQPELP		
Pancreas C57BL/6	QPFPQPELPY	Filtrate	
Plasma, NOD	YPQPQPF	Filtrate	
